Test results from ChEMBL document CHEMBL4052645, “Discovery of potent and efficacious pyrrolopyridazines as dual JAK1/3 inhibitors” (Bioorg Med Chem Lett, 2017).

Key:
[1] = molecular target: Serine/threonine-protein kinase pim-3 (Homo sapiens) (UniProt Q86V86); assay: Inhibition of wild-type human partial length PIM3 (G16 to A317 residues) expressed in bacterial expression system assessed as residual activity at 50 nM by Kinomescan method relative to control
[2] = molecular target: Phosphatidylinositol 5-phosphate 4-kinase type-2 beta (Homo sapiens) (UniProt P78356); assay: Inhibition of wild-type human full length PIP5K2B (M1 to T416 residues) expressed in bacterial expression system assessed as residual activity at 50 nM by Kinomescan method relative to control
[3] = molecular target: Mitogen-activated protein kinase 15 (Homo sapiens) (UniProt Q8TD08); assay: Inhibition of wild-type human partial length ERK7 (M1 to P437 residues) expressed in bacterial expression system assessed as residual activity at 50 nM by Kinomescan method relative to control
[4] = molecular target: Serine/threonine-protein kinase ULK3 (Homo sapiens) (UniProt Q6PHR2); assay: Inhibition of wild-type human partial length ULK3 (M1 to Q290 residues) expressed in mammalian expression system assessed as residual activity at 50 nM by Kinomescan method relative to control
Sequence of Serine/threonine-protein kinase ULK3 (Homo sapiens) (Q6PHR2 whole entry, the tested form may be a part): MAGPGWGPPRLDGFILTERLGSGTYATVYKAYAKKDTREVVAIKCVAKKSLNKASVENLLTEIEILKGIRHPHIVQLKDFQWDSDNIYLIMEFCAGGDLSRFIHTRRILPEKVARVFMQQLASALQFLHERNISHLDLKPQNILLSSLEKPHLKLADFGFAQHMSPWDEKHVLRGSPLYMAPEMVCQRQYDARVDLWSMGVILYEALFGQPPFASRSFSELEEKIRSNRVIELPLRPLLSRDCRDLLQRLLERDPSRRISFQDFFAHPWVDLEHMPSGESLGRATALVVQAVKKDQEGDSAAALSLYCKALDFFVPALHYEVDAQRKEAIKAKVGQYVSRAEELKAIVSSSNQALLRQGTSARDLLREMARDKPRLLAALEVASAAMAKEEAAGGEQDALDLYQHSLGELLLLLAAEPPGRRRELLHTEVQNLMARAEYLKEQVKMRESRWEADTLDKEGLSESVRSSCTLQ

[5] = molecular target: Cyclin-dependent kinase 5 (Homo sapiens) (UniProt Q00535); assay: Inhibition of wild-type human full length CDK5 (M1 to P292 residues) expressed in bacterial expression system assessed as residual activity at 50 nM by Kinomescan method relative to control
[6] = molecular target: Cyclin-dependent kinase 2 (Homo sapiens) (UniProt P24941); assay: Inhibition of wild-type human full length CDK2 (M1 to L298 residues) expressed in bacterial expression system assessed as residual activity at 50 nM by Kinomescan method relative to control
[7] = molecular target: Ribosomal protein S6 kinase alpha-5 (Homo sapiens) (UniProt O75582); assay: Inhibition of wild-type human partial length C-terminal MSK1 kinase domain 2 (V390 to T718 residues) expressed in bacterial expression system assessed as residual activity at 50 nM by Kinomescan method relative to control
[8] = molecular target: Cyclin-dependent kinase-like 1 (Homo sapiens) (UniProt Q00532); assay: Inhibition of wild-type human full length CDKL1 (M1 to I358 residues) expressed in mammalian expression system assessed as residual activity at 50 nM by Kinomescan method relative to control
[9] = molecular target: Serine/threonine-protein kinase RIO2 (Homo sapiens) (UniProt Q9BVS4); assay: Inhibition of wild-type human partial length RIOK2 (M1 to D313 residues) expressed in mammalian expression system assessed as residual activity at 50 nM by Kinomescan method relative to control
Sequence of Serine/threonine-protein kinase RIO2 (Homo sapiens) (Q9BVS4 whole entry, looked up, the tested form may be a part): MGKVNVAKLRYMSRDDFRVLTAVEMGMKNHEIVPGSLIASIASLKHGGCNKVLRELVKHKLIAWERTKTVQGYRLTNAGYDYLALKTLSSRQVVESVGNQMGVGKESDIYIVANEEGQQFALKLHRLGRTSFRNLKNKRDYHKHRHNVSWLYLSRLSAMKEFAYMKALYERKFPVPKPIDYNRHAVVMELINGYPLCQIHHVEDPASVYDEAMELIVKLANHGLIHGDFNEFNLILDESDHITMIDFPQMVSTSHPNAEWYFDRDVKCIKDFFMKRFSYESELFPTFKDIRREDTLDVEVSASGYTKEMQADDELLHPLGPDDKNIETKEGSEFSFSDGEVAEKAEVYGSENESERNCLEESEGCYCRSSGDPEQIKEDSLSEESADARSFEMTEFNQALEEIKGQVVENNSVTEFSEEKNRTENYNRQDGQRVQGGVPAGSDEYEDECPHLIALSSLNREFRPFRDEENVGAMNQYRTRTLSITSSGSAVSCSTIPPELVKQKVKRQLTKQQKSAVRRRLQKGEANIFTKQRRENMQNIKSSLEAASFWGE

[10] = molecular target: Ephrin type-A receptor 7 (Homo sapiens) (UniProt Q15375); assay: Inhibition of wild-type human partial length EPHA7 (Y608 to S912 residues) expressed in bacterial expression system assessed as residual activity at 50 nM by Kinomescan method relative to control
[11] = molecular target: Tyrosine-protein kinase Tec (Homo sapiens) (UniProt P42680); assay: Inhibition of wild-type human partial length TEC (L341 to D620 residues) expressed in bacterial expression system assessed as residual activity at 50 nM by Kinomescan method relative to control
Sequence of Tyrosine-protein kinase Tec (Homo sapiens) (P42680 whole entry, the tested form may be a part): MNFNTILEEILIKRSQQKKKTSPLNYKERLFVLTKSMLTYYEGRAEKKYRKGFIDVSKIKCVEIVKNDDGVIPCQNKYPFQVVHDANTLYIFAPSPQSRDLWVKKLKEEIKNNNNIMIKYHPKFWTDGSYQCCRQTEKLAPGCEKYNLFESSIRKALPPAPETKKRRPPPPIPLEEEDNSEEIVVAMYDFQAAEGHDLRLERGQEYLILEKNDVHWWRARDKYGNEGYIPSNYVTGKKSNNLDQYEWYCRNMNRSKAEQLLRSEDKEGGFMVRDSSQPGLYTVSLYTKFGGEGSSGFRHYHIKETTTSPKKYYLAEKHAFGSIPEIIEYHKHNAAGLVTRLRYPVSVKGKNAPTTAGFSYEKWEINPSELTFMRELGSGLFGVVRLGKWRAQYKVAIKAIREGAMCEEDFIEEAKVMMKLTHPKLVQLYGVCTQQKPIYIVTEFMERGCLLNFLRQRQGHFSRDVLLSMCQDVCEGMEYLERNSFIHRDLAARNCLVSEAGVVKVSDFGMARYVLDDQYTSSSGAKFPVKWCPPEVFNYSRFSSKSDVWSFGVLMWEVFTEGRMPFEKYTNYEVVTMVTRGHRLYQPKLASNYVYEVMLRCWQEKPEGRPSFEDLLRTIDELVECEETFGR

[12] = molecular target: Serine/threonine-protein kinase Nek2 (Homo sapiens) (UniProt P51955); assay: Inhibition of wild-type human partial length NEK2 (M1 to K309 residues) expressed in bacterial expression system assessed as residual activity at 50 nM by Kinomescan method relative to control
Sequence of Serine/threonine-protein kinase Nek2 (Homo sapiens) (P51955 whole entry, the tested form may be a part): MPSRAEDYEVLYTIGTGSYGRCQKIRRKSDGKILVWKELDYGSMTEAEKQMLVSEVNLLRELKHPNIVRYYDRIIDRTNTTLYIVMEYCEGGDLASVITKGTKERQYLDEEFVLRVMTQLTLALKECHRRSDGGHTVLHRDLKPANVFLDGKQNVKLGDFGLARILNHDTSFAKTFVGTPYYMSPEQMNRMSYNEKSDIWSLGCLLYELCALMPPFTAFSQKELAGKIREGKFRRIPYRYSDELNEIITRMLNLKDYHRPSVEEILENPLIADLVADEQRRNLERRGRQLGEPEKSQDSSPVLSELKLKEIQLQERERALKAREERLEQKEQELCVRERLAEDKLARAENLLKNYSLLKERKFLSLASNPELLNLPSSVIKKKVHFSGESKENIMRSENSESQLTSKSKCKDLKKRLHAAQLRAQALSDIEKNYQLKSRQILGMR

[13] = molecular target: Serine/threonine-protein kinase BRSK1 (Homo sapiens) (UniProt Q8TDC3); assay: Inhibition of wild-type human partial length BRSK1 (M1 to E754 residues) expressed in bacterial expression system assessed as residual activity at 50 nM by Kinomescan method relative to control
Sequence of Serine/threonine-protein kinase BRSK1 (Homo sapiens) (Q8TDC3 whole entry, the tested form may be a part): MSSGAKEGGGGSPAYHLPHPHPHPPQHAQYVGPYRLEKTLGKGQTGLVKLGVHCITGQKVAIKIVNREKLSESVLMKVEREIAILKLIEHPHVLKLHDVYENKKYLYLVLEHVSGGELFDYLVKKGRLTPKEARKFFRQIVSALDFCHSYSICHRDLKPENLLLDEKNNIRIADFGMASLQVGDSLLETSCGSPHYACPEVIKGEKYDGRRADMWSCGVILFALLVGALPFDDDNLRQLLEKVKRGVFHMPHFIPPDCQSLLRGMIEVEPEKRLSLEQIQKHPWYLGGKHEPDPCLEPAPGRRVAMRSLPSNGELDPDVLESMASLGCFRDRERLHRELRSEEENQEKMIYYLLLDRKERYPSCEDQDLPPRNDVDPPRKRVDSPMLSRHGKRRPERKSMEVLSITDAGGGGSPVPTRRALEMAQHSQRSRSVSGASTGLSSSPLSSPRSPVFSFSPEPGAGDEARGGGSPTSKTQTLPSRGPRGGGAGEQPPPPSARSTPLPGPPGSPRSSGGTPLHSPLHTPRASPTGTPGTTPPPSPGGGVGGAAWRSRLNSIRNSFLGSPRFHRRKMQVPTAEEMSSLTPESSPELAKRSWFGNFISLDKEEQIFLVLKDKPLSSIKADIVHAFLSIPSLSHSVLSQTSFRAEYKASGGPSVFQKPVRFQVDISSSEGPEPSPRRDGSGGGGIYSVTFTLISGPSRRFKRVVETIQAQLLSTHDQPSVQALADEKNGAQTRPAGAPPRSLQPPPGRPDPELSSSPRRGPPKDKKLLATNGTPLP

[14] = molecular target: Tyrosine-protein kinase JAK2 (Homo sapiens, UniProt O60674); assay: Inhibition of GST-tagged JAK2 (unknown origin) after 3 hrs by Caliper assay
Sequence of Tyrosine-protein kinase JAK2 (O60674 whole entry, the tested form may be a part): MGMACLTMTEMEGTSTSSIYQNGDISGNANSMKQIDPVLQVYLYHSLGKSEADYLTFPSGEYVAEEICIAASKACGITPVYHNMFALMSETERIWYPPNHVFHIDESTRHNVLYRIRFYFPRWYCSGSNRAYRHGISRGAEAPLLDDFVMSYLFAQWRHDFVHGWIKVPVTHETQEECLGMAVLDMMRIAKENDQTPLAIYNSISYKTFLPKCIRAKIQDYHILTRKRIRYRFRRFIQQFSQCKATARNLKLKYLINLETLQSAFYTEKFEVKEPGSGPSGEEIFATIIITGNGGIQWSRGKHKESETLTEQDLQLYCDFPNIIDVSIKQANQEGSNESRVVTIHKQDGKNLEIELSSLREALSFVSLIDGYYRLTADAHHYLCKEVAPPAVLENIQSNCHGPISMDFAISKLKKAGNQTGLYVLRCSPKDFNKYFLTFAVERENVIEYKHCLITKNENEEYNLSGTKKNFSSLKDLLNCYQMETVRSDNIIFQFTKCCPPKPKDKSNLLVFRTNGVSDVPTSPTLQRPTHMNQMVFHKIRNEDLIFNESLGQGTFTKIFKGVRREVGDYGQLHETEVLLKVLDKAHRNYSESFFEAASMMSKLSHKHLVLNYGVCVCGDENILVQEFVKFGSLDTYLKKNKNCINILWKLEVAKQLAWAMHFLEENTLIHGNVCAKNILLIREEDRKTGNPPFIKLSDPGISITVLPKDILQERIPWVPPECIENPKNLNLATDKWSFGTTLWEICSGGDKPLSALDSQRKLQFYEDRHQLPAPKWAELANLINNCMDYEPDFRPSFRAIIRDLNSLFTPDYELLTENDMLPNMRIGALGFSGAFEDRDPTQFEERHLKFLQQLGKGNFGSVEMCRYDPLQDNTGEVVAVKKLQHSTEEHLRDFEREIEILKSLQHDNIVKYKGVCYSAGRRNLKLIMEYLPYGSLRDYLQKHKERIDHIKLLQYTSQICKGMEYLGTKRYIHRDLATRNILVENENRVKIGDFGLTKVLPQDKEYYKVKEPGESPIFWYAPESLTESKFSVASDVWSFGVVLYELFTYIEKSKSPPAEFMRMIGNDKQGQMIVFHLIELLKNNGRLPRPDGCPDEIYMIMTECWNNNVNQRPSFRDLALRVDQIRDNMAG

[15] = molecular target: Cyclin-dependent kinase 3 (Homo sapiens) (UniProt Q00526); assay: Inhibition of wild-type human full length CDK3 (M1 to H305 residues) expressed in bacterial expression system assessed as residual activity at 50 nM by Kinomescan method relative to control
Sequence of Cyclin-dependent kinase 3 (Homo sapiens) (Q00526 whole entry, looked up, the tested form may be a part, canonical isoform): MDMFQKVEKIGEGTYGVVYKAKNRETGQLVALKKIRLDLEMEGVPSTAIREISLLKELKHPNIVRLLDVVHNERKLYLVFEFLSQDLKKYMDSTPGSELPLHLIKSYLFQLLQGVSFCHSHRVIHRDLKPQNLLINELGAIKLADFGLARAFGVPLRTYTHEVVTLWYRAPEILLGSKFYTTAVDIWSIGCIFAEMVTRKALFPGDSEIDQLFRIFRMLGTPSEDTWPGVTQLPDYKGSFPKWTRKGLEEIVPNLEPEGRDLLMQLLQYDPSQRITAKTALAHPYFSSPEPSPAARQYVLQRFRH

[16] = tested on: Phosphatidylinositol 4,5-bisphosphate 3-kinase catalytic subunit alpha isoform (Homo sapiens), P42336 [E545A]; assay: Inhibition of human partial length PIK3CA E545A mutant (R108 to N1068 residues) expressed in mammalian expression system assessed as residual activity at 50 nM by Kinomescan method relative to control
[17] = molecular target: Serine/threonine-protein kinase RIO1 (Homo sapiens) (UniProt Q9BRS2); assay: Inhibition of full length human RIOK1 (M1 to K568 residues) expressed in bacterial expression system assessed as residual activity at 50 nM by KINOMEscan assay relative to control
[18] = molecular target: Serine/threonine-protein kinase SIK1 (Homo sapiens) (UniProt P57059); assay: Inhibition of wild-type human partial length SIK (M1 to Y304 residues) expressed in bacterial expression system assessed as residual activity at 50 nM by Kinomescan method relative to control
[19] = molecular target: Cyclin-dependent kinase 13 (Homo sapiens) (UniProt Q14004); assay: Inhibition of wild-type human partial length CDC2L5 (H675 to S1054 residues) expressed in mammalian expression system assessed as residual activity at 50 nM by Kinomescan method relative to control
[20] = molecular target: Eukaryotic translation initiation factor 2-alpha kinase 1 (Homo sapiens) (UniProt Q9BQI3); assay: Inhibition of wild-type human partial length EIF2AK1 (Q147 to E603 residues) expressed in mammalian expression system assessed as residual activity at 50 nM by Kinomescan method relative to control
[21] = molecular target: LIM domain kinase 1 (Homo sapiens) (UniProt P53667); assay: Inhibition of wild-type human full length LIMK1 (M1 to D647 residues) expressed in bacterial expression system assessed as residual activity at 50 nM by Kinomescan method relative to control
[22] = molecular target: Insulin-like growth factor 1 receptor (Homo sapiens) (UniProt P08069); assay: Inhibition of wild-type human partial length IGF1R (L972 to D1294 residues) expressed in bacterial expression system assessed as residual activity at 50 nM by Kinomescan method relative to control
[23] = molecular target: Myosin-IIIa (Homo sapiens) (UniProt Q8NEV4); assay: Inhibition of wild-type human partial length MYO3A (M1 to K338 residues) expressed in bacterial expression system assessed as residual activity at 50 nM by Kinomescan method relative to control
[24] = molecular target: Megakaryocyte-associated tyrosine-protein kinase (Homo sapiens) (UniProt P42679); assay: Inhibition of wild-type human full length CTK (M43 to P508 residues) expressed in mammalian expression system assessed as residual activity at 50 nM by Kinomescan method relative to control
[25] = molecular target: NUAK family SNF1-like kinase 1 (Homo sapiens) (UniProt O60285); assay: Inhibition of human NUAK1 (25 to I332 residues) expressed in bacterial expression system assessed as residual activity at 50 nM by KINOMEscan assay relative to control
Sequence of NUAK family SNF1-like kinase 1 (Homo sapiens) (O60285 whole entry, the tested form may be a part): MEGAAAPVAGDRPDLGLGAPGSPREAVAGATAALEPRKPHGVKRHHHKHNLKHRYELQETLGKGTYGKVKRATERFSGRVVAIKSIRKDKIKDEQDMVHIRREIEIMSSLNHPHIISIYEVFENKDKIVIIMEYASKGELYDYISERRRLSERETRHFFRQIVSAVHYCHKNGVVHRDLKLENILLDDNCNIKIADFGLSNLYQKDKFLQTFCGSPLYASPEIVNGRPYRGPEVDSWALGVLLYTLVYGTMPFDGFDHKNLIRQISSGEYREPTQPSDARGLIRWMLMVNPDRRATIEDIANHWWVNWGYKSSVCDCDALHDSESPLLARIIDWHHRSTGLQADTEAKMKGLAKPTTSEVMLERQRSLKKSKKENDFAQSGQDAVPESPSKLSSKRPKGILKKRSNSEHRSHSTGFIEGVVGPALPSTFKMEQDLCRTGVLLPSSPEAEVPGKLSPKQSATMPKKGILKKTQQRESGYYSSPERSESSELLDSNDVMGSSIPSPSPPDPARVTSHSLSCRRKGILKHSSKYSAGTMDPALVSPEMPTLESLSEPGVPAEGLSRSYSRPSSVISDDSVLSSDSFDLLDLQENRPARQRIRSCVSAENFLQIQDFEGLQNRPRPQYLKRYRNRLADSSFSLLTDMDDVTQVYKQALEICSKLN

Compound	Activity [1] [%]	Activity [2] [%]	Activity [3] [%]	Activity [4] [%]	Activity [5] [%]	Activity [6] [%]	Activity [7] [%]	Activity [8] [%]	Activity [9] [%]	Activity [10] [%]	Activity [11] [%]	Activity [12] [%]	Activity [13] [%]	IC50 [14] [nM]	Activity [15] [%]	Activity [16] [%]	Activity [17] [%]	Activity [18] [%]	Activity [19] [%]	Activity [20] [%]	further results
CC1(C)[C@H](Nc2c(C(N)=O)cnn3cc(-c4ccccc4)cc23)CC[C@]1(C)N	92	47	100	100	94	100	95	97	50	100	99	72	75	9	98	90	14	80	72	94	Activity [21]: 67%; Activity [22]: 100%; Activity [23]: 87%; Activity [24]: 95%; Activity [25]: 2%
COc1ccc(-c2cc3c(N[C@@H]4CC[C@](C)(N)C4(C)C)c(C(N)=O)cnn3c2)cn1	72	72	100	100	92	88	100	100	99	100	100	93	100	15	94	100	69	96	100	96	Activity [21]: 100%; Activity [22]: 100%; Activity [23]: 94%; Activity [24]: 85%; Activity [25]: 6%
